Results published in the supplement of paper PMC10307832.

Experiments:
Assay in all cases: relative viability (nuclei count vs DMSO), 5 days (fraction); higher = more cells survive
[1] = system: NCI-H2405
Summary of the method: (§1)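 Five library-drug doses in √10 steps were combined with a fixed anchor-drug dose, or a single drug was given alone, by pin tool to lung cancer cell lines in 1536-well plates the day after seeding. Nuclei were stained and counted after 5 days. Relative viability is the nuclei count in treated wells over that in vehicle wells, taken as the median of duplicate plates.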

[2] = system: EKVX
Summary of the method: as §1

[3] = system: RERF-LC-KJ
Summary of the method: as §1

[4] = system: NCI-H1734
Summary of the method: as §1

[5] = system: HCC-827
Summary of the method: as §1

[6] = system: PC-14
Summary of the method: as §1

[7] = system: NCI-H520
Summary of the method: as §1

[8] = system: HCC-15
Summary of the method: as §1

[9] = system: NCI-H2228
Summary of the method: as §1

[10] = system: NCI-H322M
Summary of the method: as §1

[11] = system: LK-2
Summary of the method: as §1

[12] = system: NCI-H1975
Summary of the method: as §1

[13] = system: LCLC-97TM1
Summary of the method: as §1

[14] = system: NCI-H1355
Summary of the method: as §1

[15] = system: H3255
Summary of the method: as §1

[16] = system: NCI-H1650
Summary of the method: as §1

[17] = system: CAL-12T
Summary of the method: as §1

[18] = system: NCI-H1755
Summary of the method: as §1

[19] = system: PC-3 [JPC-3]
Summary of the method: as §1

For Nc1ccn([C@@H]2O[C@H](CO)[C@@H](O)[C@@H]2O)c(=O)n1 [Cytarabine] + CC1(C)CCC(c2ccc(Cl)cc2)=C(CN2CCN(c3ccc(C(=O)NS(=O)(=O)c4ccc(N[C@H](CCN5CCOCC5)CSc5ccccc5)c(S(=O)(=O)C(F)(F)F)c4)cc3)CC2)C1 [Navitoclax] (partner 0.5 µM), the relative viability ([1]; first compound 0.005 µM) was 0.851, the relative viability ([1]; first compound 0.01581 µM) was 0.671 and the relative viability ([1]; first compound 0.05 µM) was 0.424. The relative viability ([1]; first compound 0.1581 µM) was 0.373, the relative viability ([1]; first compound 0.5 µM) was 0.114 and the relative viability ([2]; first compound 0.005 µM) was 0.936. The relative viability ([2]; first compound 0.01581 µM) was 0.933, the relative viability ([2]; first compound 0.05 µM) was 0.664 and the relative viability ([2]; first compound 0.1581 µM) was 0.298. The relative viability ([2]; first compound 0.5 µM) was 0.198, the relative viability ([3]; first compound 0.005 µM) was 0.772 and the relative viability ([3]; first compound 0.01581 µM) was 1.02. For the same molecule, the relative viability ([3]; first compound 0.05 µM) was 1.08, the relative viability ([3]; first compound 0.1581 µM) was 0.509 and the relative viability ([3]; first compound 0.5 µM) was 0.325. For the same molecule, the relative viability ([4]; first compound 0.005 µM) was 0.418, the relative viability ([4]; first compound 0.01581 µM) was 0.322 and the relative viability ([4]; first compound 0.05 µM) was 0.197. For the same molecule, the relative viability ([4]; first compound 0.1581 µM) was 0.142, the relative viability ([4]; first compound 0.5 µM) was 0.126 and the relative viability ([5]; first compound 0.005 µM) was 0.615. The relative viability ([5]; first compound 0.01581 µM) was 0.529, the relative viability ([5]; first compound 0.05 µM) was 0.398 and the relative viability ([5]; first compound 0.1581 µM) was 0.264. The relative viability ([5]; first compound 0.5 µM) was 0.252, the relative viability ([6]; first compound 0.005 µM) was 0.918 and the relative viability ([6]; first compound 0.01581 µM) was 1.03. The relative viability ([6]; first compound 0.05 µM) was 0.803, the relative viability ([6]; first compound 0.1581 µM) was 0.314 and the relative viability ([6]; first compound 0.5 µM) was 0.119. It also gave a relative viability ([7]; first compound 0.005 µM) of 0.955, a relative viability ([7]; first compound 0.01581 µM) of 0.902 and a relative viability ([7]; first compound 0.05 µM) of 1.14. The relative viability ([7]; first compound 0.1581 µM) was 0.904, the relative viability ([7]; first compound 0.5 µM) was 0.781 and the relative viability ([8]; first compound 0.005 µM) was 0.669. It also gave a relative viability ([8]; first compound 0.01581 µM) of 0.733, a relative viability ([8]; first compound 0.05 µM) of 0.609 and a relative viability ([8]; first compound 0.1581 µM) of 0.562. It also gave a relative viability ([8]; first compound 0.5 µM) of 0.43, a relative viability ([9]; first compound 0.005 µM) of 0.504 and a relative viability ([9]; first compound 0.01581 µM) of 0.544. It also gave a relative viability ([9]; first compound 0.05 µM) of 0.0741, a relative viability ([9]; first compound 0.1581 µM) of 0.0929 and a relative viability ([9]; first compound 0.5 µM) of 0.0928. The relative viability ([10]; first compound 0.005 µM) was 0.846, the relative viability ([10]; first compound 0.01581 µM) was 0.787 and the relative viability ([10]; first compound 0.05 µM) was 0.561. It also gave a relative viability ([10]; first compound 0.1581 µM) of 0.46, a relative viability ([10]; first compound 0.5 µM) of 0.366 and a relative viability ([11]; first compound 0.005 µM) of 0.527. It also gave a relative viability ([11]; first compound 0.01581 µM) of 0.425, a relative viability ([11]; first compound 0.05 µM) of 0.316 and a relative viability ([11]; first compound 0.1581 µM) of 0.191. The relative viability ([11]; first compound 0.5 µM) was 0.194, the relative viability ([12]; first compound 0.005 µM) was 0.944 and the relative viability ([12]; first compound 0.01581 µM) was 1.26. It also gave a relative viability ([12]; first compound 0.05 µM) of 1.1, a relative viability ([12]; first compound 0.1581 µM) of 0.567 and a relative viability ([12]; first compound 0.5 µM) of 0.359. For the same molecule, the relative viability ([13]; first compound 0.005 µM) was 0.401, the relative viability ([13]; first compound 0.01581 µM) was 0.283 and the relative viability ([13]; first compound 0.05 µM) was 0.171. It also gave a relative viability ([13]; first compound 0.1581 µM) of 0.107, a relative viability ([13]; first compound 0.5 µM) of 0.115 and a relative viability ([14]; first compound 0.005 µM) of 0.897. The relative viability ([14]; first compound 0.01581 µM) was 0.811, the relative viability ([14]; first compound 0.05 µM) was 0.819 and the relative viability ([14]; first compound 0.1581 µM) was 0.325. The relative viability ([14]; first compound 0.5 µM) was 0.203, the relative viability ([15]; first compound 0.005 µM) was 0.451 and the relative viability ([15]; first compound 0.01581 µM) was 0.506. For the same molecule, the relative viability ([15]; first compound 0.05 µM) was 0.411, the relative viability ([15]; first compound 0.1581 µM) was 0.325 and the relative viability ([15]; first compound 0.5 µM) was 0.332. It also gave a relative viability ([16]; first compound 0.005 µM) of 1.11, a relative viability ([16]; first compound 0.01581 µM) of 1.24 and a relative viability ([16]; first compound 0.05 µM) of 0.616. For the same molecule, the relative viability ([16]; first compound 0.1581 µM) was 0.355, the relative viability ([16]; first compound 0.5 µM) was 0.18 and the relative viability ([17]; first compound 0.005 µM) was 1.24. The relative viability ([17]; first compound 0.01581 µM) was 1.4, the relative viability ([17]; first compound 0.05 µM) was 1.13 and the relative viability ([17]; first compound 0.1581 µM) was 0.598. It also gave a relative viability ([17]; first compound 0.5 µM) of 0.244, a relative viability ([18]; first compound 0.005 µM) of 0.914 and a relative viability ([18]; first compound 0.01581 µM) of 0.821. For the same molecule, the relative viability ([18]; first compound 0.05 µM) was 0.583, the relative viability ([18]; first compound 0.1581 µM) was 0.201 and the relative viability ([18]; first compound 0.5 µM) was 0.194. The relative viability ([19]; first compound 0.005 µM) was 0.753, the relative viability ([19]; first compound 0.01581 µM) was 0.774 and the relative viability ([19]; first compound 0.05 µM) was 0.7. The relative viability ([19]; first compound 0.1581 µM) was 0.605 and the relative viability ([19]; first compound 0.5 µM) was 0.556.
